Patent publication US20090209525A1, “ENABLING METHODS TO IDENTIFY ALLOSTERIC MODULATORS OF RECEPTOR ACTIVITY” (priority 2006, published 2009)
Changes are numbered by the printed parent chain.

Legend:
rat M1 W101A receptor [1] = molecular target: T1, rat M1 W101A receptor (Rattus norvegicus, UniProt P08482, W101A); assay: ^3H-NMS radioligand binding, W101A; conditions: for Shift: Ki W101A divided by Ki wild-type; for increase in binding affinity relative to wild-type: radioligand binding, W101A
T1 construct: expressed in transfected cells
T1 sequence (P08482 1-460 W101A): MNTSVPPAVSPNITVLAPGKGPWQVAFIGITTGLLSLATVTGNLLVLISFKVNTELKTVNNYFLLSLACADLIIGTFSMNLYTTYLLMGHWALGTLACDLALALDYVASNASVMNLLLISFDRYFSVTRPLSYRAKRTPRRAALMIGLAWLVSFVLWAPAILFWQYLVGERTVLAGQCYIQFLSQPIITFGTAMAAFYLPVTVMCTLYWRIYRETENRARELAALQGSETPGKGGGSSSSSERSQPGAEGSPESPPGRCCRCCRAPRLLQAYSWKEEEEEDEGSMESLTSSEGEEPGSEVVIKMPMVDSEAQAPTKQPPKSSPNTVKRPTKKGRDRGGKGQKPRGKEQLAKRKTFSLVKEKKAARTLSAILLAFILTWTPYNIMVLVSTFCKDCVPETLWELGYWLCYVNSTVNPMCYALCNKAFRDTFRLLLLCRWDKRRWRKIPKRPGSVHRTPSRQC
Description: (§1) Briefly, cell homogenates are prepared from cells transiently or stably expressing wild type or mutant receptors. For transiently transfected cells, HEK cells are transfected with receptor of interest and cells harvested 48 hours post transfection. Cells expressing the receptor, stably or transiently, are harvested using phosphate buffered saline containing 5 mM EDTA, cells centrifuged at low speed and pellet re-suspended in binding buffer. Cell suspension is polytroned and centrifuged at 15,000×g. The pellet is resuspended in binding buffer and centrifugation repeated two more times. The washed cell homogenates are used for the competition binding assays. Competition binding assays are carried out in the presence of fixed amount of cell homogenate, fixed concentration of radioactively labeled orthosteric or allosteric ligand and varying concentrations of the cal under study using appropriate buffer. Incubations are carried out at room temperature for 2 hours. Incubations are terminated by filtration onto GF/B filters using Packard cell harvester followed by 3 washes with ice-cold buffer. Radioactivity retained on the filters is quantitated using Packard Top Count using Microscint 20 scintillation fluid. […] The membranes prepared above are incubated with a labeled ligand in 25 mM sodium phosphate, 5 mM magnesium chloride, 0.01% BSA two hours at room temperature. The binding reaction is stopped by rapid filtration onto GF/B filters. […] The pKd values (pKd=−log Kd) of the labeled ligand are calculated.
(§2) Radioligand binding assays were carried out in 25 mM sodium phosphate, 5 mM magnesium chloride, 0.01% BSA. Incubations were for two hours at room temperature, and reactions were stopped by rapid filtration onto GF/B filters.

rat M1 Y106A receptor [2] = molecular target: T2, rat M1 Y106A receptor (Rattus norvegicus, UniProt P08482, Y106A); assay: ^3H-NMS radioligand binding, Y106A; conditions: for Shift: Ki Y106A divided by Ki wild-type
T2 construct: expressed in transfected cells
T2 sequence (P08482 1-460 Y106A): T1 sequence (P08482 1-460 W101A) with A101W, Y106A
Description: as §1, §2

rat M1 S109A receptor = molecular target: T3, rat M1 S109A receptor (Rattus norvegicus, UniProt P08482, S109A); assay: Phosphatidyl inositol hydrolysis assay, S109A; assay type: cell-based; conditions: Table 6; for Shift: EC50 S109A divided by EC50 wild-type; for EC50 / Eff (%): PI hydrolysis, S109A; for Eff (%): relative to wild-type response to that ligand
T3 construct: expressed in transfected cells
T3 sequence (P08482 1-460 S109A): T1 sequence (P08482 1-460 W101A) with A101W, S109A

rat M1 W101A receptor [3] = molecular target: T1, rat M1 W101A receptor; assay: Phosphatidyl inositol hydrolysis assay, W101A; assay type: cell-based; conditions: Table 6; for Shift: EC50 W101A divided by EC50 wild-type; for EC50 / Eff (%): PI hydrolysis, W101A; for Eff (%): relative to wild-type response to that ligand (clozapine: title says fold-response)
[4] = molecular target: T4, rat M1 wild-type receptors (Rattus norvegicus, UniProt P08482); assay: Phosphatidyl inositol hydrolysis assay, wild-type; assay type: cell-based; conditions: for Shift: EC50 divided by EC50 wild-type (reference)
T4 construct: expressed in transfected cells
T4 sequence (P08482 1-460): T1 sequence (P08482 1-460 W101A) with A101W

rat M1 Y106A receptor [5] = molecular target: T2, rat M1 Y106A receptor; assay: Phosphatidyl inositol hydrolysis assay, Y106A; assay type: cell-based; conditions: Table 6; for Shift: EC50 Y106A divided by EC50 wild-type; for EC50 / Eff (%): PI hydrolysis, Y106A; for Eff (%): relative to wild-type response to that ligand (clozapine: title says fold-response)
[6] = Table 5, PI hydrolysis, maximum response relative to carbachol
[7] = Table 6, PI hydrolysis, M1 WT, maximum response, normalized

Structure (SMILES)	IC50 (rat M1 W101A receptor [1])	Shift (rat M1 W101A receptor [1])	increase in binding affinity relative to wild-type (rat M1 W101A receptor [1])	IC50 (rat M1 Y106A receptor [2])	Shift (rat M1 Y106A receptor [2])	Shift (rat M1 S109A receptor)	EC50 (rat M1 S109A receptor)	Eff (%) (rat M1 S109A receptor)	Shift (rat M1 W101A receptor [3])	EC50 (rat M1 W101A receptor [3])	Eff (%) (rat M1 W101A receptor [3])	Eff (%) [4, 6]	EC50 ([4]; Table 5, PI hydrolysis, wild-type)	Shift ([4]; Table 6)	pEC50 ([4]; Table 6, PI hydrolysis, M1 WT)	Eff (%) [4, 7]	Shift (rat M1 Y106A receptor [5])	EC50 (rat M1 Y106A receptor [5])	Eff (%) (rat M1 Y106A receptor [5])	EC50 ([4]; Table 6, PI hydrolysis, M1 WT)
CCCCC1CCN(CCCC(=O)c2ccccc2C)CC1 [AC-42, 4-n-butyl-1-[4-(2-methylphenyl)-4-oxo-1-butyl] piperidine hydrogen chloride]	50.1 nM	0.01	50 fold	5010 nM	1	–	–	–	–	–	–	–	–	–	–	–	–	–	–	–
CCCCC1CCN(CCCN2C(=O)COc3cc(F)ccc32)CC1 [AC-260584, 4-[3-(4-Butyl-piperidin-1-yl)-propyl]-7-fluoro-4H-benzo [1,4]oxazin-3-one]	3.16 nM	0.003	over 100 fold	3160 nM	3	1	79.4 nM	85 ± 11%	0.03	1.58 nM	112 ± 6%	99 ± 20%	50.1 nM	1	7.3 ± 0.1	100 ± 7%	4	251 nM	110 ± 22%	–
Clc1ccc2c(c1)N=C(N1CCNCC1)c1ccccc1N2 [NDMC, 8-chloro-11-(1-piperazinyl)-5H-dibenzo [b,e] [1,4] diazepine]	126 nM	1	–	50.1 nM	0.3	4	200 nM	47 ± 17%	6	316 nM	54 ± 11%	44 ± 17%	–	1	–	55 ± 8%	3	200 nM	40 ± 4%	100 nM
